Legend:
Type in all cases: cell-based
[1] = SRB colorimetric cell growth inhibition assay, H-MEC-1; details: human; H-MEC-1; cell killing (cytotoxic effect); read-out: LC50 H-MEC-1
Source text: A colorimetric type of assay, using sulforhodamine B (SRB) reaction has been adapted for a quantitative measurement of cell growth and viability (following the technique described by P. A. Skehan, et al., J. Natl. Cancer Inst. 1990, 82, 1107-1112).
This form of assay employs 96 well cell culture microplates of 9 mm diameter (T. Mosmann et al., J. of Immunological Methods 1983, 65, 55-63; G. T. Faircloth et al., J. of Tissue and Culture Methods 1988, 11, 201-205).
Most of the cell lines are obtained from American Type Culture Collection (ATCC) derived from different human cancer types.
The values for mean +/− SD of data from triplicate wells are calculated. Some parameters for cellular responses can be calculated: GI=growth inhibition, TGI=total growth inhibition (cytostatic effect) and LC=cell killing (cytotoxic effect).

K-562 = experiment: SRB colorimetric cell growth inhibition assay, K-562; details: Homo sapiens, K562, K-562; for GI50: GI=growth inhibition, read-out: GI50 K-562; for CC50: cell killing (cytotoxic effect), read-out: LC50 K-562; for IC (TGI): total growth inhibition (cytostatic effect), read-out: TGI K-562
Outline: (§1)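 Continuous drug exposure of human cancer cells; SRB protein stain read-out; triplicate wells, mean ± SD; GI, TGI, LC computed.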

HT-29 = experiment: SRB colorimetric cell growth inhibition assay, HT-29; details: Homo sapiens, HT-29, HT-29; for GI50: GI=growth inhibition, read-out: GI50 HT-29; for CC50: cell killing (cytotoxic effect), read-out: LC50 HT-29; for IC (TGI): total growth inhibition (cytostatic effect), read-out: TGI HT-29
Outline: as §1

A-549 = experiment: SRB colorimetric cell growth inhibition assay, A-549; details: Homo sapiens, A549, A-549; for GI50: GI=growth inhibition, read-out: GI50 A-549; for CC50: cell killing (cytotoxic effect), read-out: LC50 A-549; for IC (TGI): total growth inhibition (cytostatic effect), read-out: TGI A-549
Outline: as §1

LNCaP = experiment: SRB colorimetric cell growth inhibition assay, LNCaP; details: Homo sapiens, LNCaP, LN-caP; for GI50: GI=growth inhibition, read-out: GI50 LN-caP; for CC50: LC=cell killing (cytotoxic effect), read-out: LC50 LN-caP; for IC (TGI): TGI=total growth inhibition (cytostatic effect), read-out: TGI LN-caP
Outline: as §1

SK-MEL-28 = experiment: SRB colorimetric cell growth inhibition assay, SK-MEL-28; details: Homo sapiens, SK-MEL-28, MEL-28; for GI50: GI=growth inhibition, read-out: GI50 MEL-28; for CC50: LC=cell killing (cytotoxic effect), read-out: LC50 MEL-28; for IC (TGI): TGI=total growth inhibition (cytostatic effect), read-out: TGI MEL-28
Outline: as §1

PANC-1 = experiment: SRB colorimetric cell growth inhibition assay, PANC-1; details: Homo sapiens, PANC-1, PANC-1; for GI50: GI=growth inhibition, read-out: GI50 PANC-1; for CC50: cell killing (cytotoxic effect), read-out: LC50 PANC-1; for IC (TGI): total growth inhibition (cytostatic effect), read-out: TGI PANC-1
Outline: as §1

[2] = SRB colorimetric cell growth inhibition assay, H-MEC-1; details: human, H-MEC-1 cells, H-MEC-1; LC=cell killing (cytotoxic effect); read-out: LC50 H-MEC-1
Outline: (§2)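 Growth and viability quantified by sulforhodamine B staining in 96-well microplates. Triplicate wells give mean ± SD; derived endpoints are GI, TGI (cytostatic) and LC (cytotoxic).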

H-MEC-1 = experiment: as above; details: Homo sapiens, HMEC-1, H-MEC-1; for GI50: GI=growth inhibition; for IC (TGI): TGI=total growth inhibition (cytostatic effect), read-out: TGI H-MEC-1
Outline: as §2

DU-145 = experiment: SRB colorimetric cell growth inhibition assay, DU-145; details: Homo sapiens, DU-145, DU-145; for GI50: GI=growth inhibition, read-out: GI50 DU-145; for CC50: LC=cell killing (cytotoxic effect), read-out: LC50 DU-145; for IC (TGI): TGI=total growth inhibition (cytostatic effect), read-out: TGI DU-145
Outline: as §1

LoVo-Dox = experiment: SRB colorimetric cell growth inhibition assay, LoVo-Dox (MDR); details: Homo sapiens, LOVO-DOX; for GI50: GI=growth inhibition, read-out: GI50 LOVO-DOX; for CC50: cell killing (cytotoxic effect), read-out: LC50 LOVO-DOX; for IC (TGI): total growth inhibition (cytostatic effect), read-out: TGI LOVO-DOX
Outline: as §1

LoVo = experiment: SRB colorimetric cell growth inhibition assay, LoVo; details: Homo sapiens, LoVo; for GI50: GI=growth inhibition, read-out: GI50 LOVO; for CC50: cell killing (cytotoxic effect), read-out: LC50 LOVO; for IC (TGI): total growth inhibition (cytostatic effect), read-out: TGI LOVO
Outline: as §1

IGROV = experiment: SRB colorimetric cell growth inhibition assay, IGROV; details: Homo sapiens, IGROV; for GI50: GI=growth inhibition, read-out: GI50 IGROV; for CC50: LC=cell killing (cytotoxic effect), read-out: LC50 IGROV; for IC (TGI): TGI=total growth inhibition (cytostatic effect), read-out: TGI IGROV
Outline: as §1

SK-BR-3 = experiment: SRB colorimetric cell growth inhibition assay, SK-BR-3; details: Homo sapiens, SK-BR-3, SK-BR-3; for GI50: GI=growth inhibition, read-out: GI50 SK-BR-3; for CC50: LC=cell killing (cytotoxic effect), read-out: LC50 SK-BR-3; for IC (TGI): TGI=total growth inhibition (cytostatic effect), read-out: TGI SK-BR-3
Outline: as §1

SKOV-3 = experiment: SRB colorimetric cell growth inhibition assay, SKOV-3; details: Homo sapiens; for GI50: SK-OV-3, SKOV-3, GI=growth inhibition, read-out: GI50 SKOV-3; for CC50 / IC (TGI): SK-OV-3, SKOV-3; for CC50: LC=cell killing (cytotoxic effect), read-out: LC50 SKOV-3; for IC (TGI): TGI=total growth inhibition (cytostatic effect), read-out: TGI SKOV-3
Outline: as §2

IGROV-ET = experiment: SRB colorimetric cell growth inhibition assay, IGROV-ET (ET-743 resistant); details: Homo sapiens, IGROV-ET; for GI50: GI=growth inhibition, read-out: GI50 IGROV-ET; for CC50: LC=cell killing (cytotoxic effect), read-out: LC50 IGROV-ET; for IC (TGI): TGI=total growth inhibition (cytostatic effect), read-out: TGI IGROV-ET
Outline: as §1

Work on COc1cc(-c2c3n(c4c(=O)oc5cc(OC(=O)[C@@H](N)C[S][Fm])c(OC)cc5c24)CCc2c-3cc(OC)c(OC)c2OC(=O)[C@@H](N)C[S][Fm])ccc1OC(=O)[C@@H](N)C[S][Fm] [Compound 23] yielded an LC50 (concentration giving 50% net cell killing) [1] of 2.87 µM.

In the case of COc1cc(-c2c3n(c4c(=O)oc5cc(OC(=O)[C@@H]6CCCN6)c(OC)cc5c24)CCc2c-3cc(OC)c(OC)c2OC(=O)[C@@H]2CCCN2)ccc1OC(=O)[C@@H]1CCCN1 [Compound 118], the GI50 (K-562) is reported as 1.17 µM, the CC50 (K-562) is reported as 6.57 µM and the IC (TGI) (K-562) is reported as 2.77 µM. The GI50 (HT-29) was 1.92 µM, the CC50 (HT-29) was 6.59 µM and the IC (TGI) (HT-29) was 3.56 µM. It also gave a GI50 (A-549) of 1.8 µM, a CC50 (A-549) of 6.99 µM and an IC (TGI) (A-549) of 3.55 µM. For the same molecule, the GI50 (LNCaP) was 0.987 µM, the CC50 (LNCaP) was 4.76 µM and the IC (TGI) (LNCaP) was 2.16 µM. The GI50 (SK-MEL-28) was 1.65 µM, the CC50 (SK-MEL-28) was 5.49 µM and the IC (TGI) (SK-MEL-28) was 3 µM. It also gave a GI50 (PANC-1) of 1.08 µM, a CC50 (PANC-1) of 5.35 µM and an IC (TGI) (PANC-1) of 2.4 µM. The CC50 [2] was 6.45 µM, the GI50 (H-MEC-1) was 1.45 µM and the IC (TGI) (H-MEC-1) was 3.06 µM. The GI50 (DU-145) was 1.6 µM, the CC50 (DU-145) was 5.64 µM and the IC (TGI) (DU-145) was 3 µM. For the same molecule, the GI50 (LoVo-Dox) was 0.45 µM, the CC50 (LoVo-Dox) was 3.86 µM and the IC (TGI) (LoVo-Dox) was 1.3 µM. For the same molecule, the GI50 (LoVo) was 1.35 µM, the CC50 (LoVo) was 5.43 µM and the IC (TGI) (LoVo) was 2.7 µM. It also gave a GI50 (IGROV) of 0.97 µM, a CC50 (IGROV) of 5.47 µM and an IC (TGI) (IGROV) of 2.3 µM. For the same molecule, the GI50 (SK-BR-3) was 0.639 µM, the CC50 (SK-BR-3) was 6.25 µM and the IC (TGI) (SK-BR-3) was 2.04 µM. It also gave a GI50 (SKOV-3) of 2.02 µM, a CC50 (SKOV-3) of 8.22 µM and an IC (TGI) (SKOV-3) of 4.08 µM. The GI50 (IGROV-ET) was 0.876 µM, the CC50 (IGROV-ET) was 6.17 µM and the IC (TGI) (IGROV-ET) was 2.33 µM.

For COc1cc2c(cc1OC)-c1c(-c3ccc(OC(=O)CCc4ccccc4)c(OC)c3)c3c4cc(OC)c(OC(=O)CCc5ccccc5)cc4oc(=O)c3n1CC2 [Compound 93], the GI50 (K-562) was 1.62 µM, the CC50 (K-562) was 4.36 µM and the IC (TGI) (K-562) was 2.65 µM. For the same molecule, the GI50 (HT-29) was 12.8 µM, the CC50 (HT-29) was 12.8 µM and the IC (TGI) (HT-29) was 12.8 µM. The GI50 (A-549) was 8.64 µM, the CC50 (A-549) was 12.8 µM and the IC (TGI) (A-549) was 12.8 µM. It also gave a GI50 (LNCaP) of 0.408 µM, a CC50 (LNCaP) of 7.08 µM and an IC (TGI) (LNCaP) of 1.27 µM. The GI50 (SK-MEL-28) was 4.57 µM, the CC50 (SK-MEL-28) was 12.8 µM and the IC (TGI) (SK-MEL-28) was 12.8 µM. The GI50 (PANC-1) was 12.8 µM, the CC50 (PANC-1) was 12.8 µM and the IC (TGI) (PANC-1) was 12.8 µM. The CC50 [2] was 12.8 µM, the GI50 (H-MEC-1) was 12.8 µM and the IC (TGI) (H-MEC-1) was 12.8 µM. The GI50 (DU-145) was 12.8 µM, the CC50 (DU-145) was 12.8 µM and the IC (TGI) (DU-145) was 12.8 µM. It also gave a GI50 (LoVo-Dox) of 3.39 µM, a CC50 (LoVo-Dox) of 12.8 µM and an IC (TGI) (LoVo-Dox) of 11.7 µM. For the same molecule, the GI50 (LoVo) was 12.8 µM, the CC50 (LoVo) was 12.8 µM and the IC (TGI) (LoVo) was 12.8 µM. For the same molecule, the GI50 (IGROV) was 3.37 µM, the CC50 (IGROV) was 12.8 µM and the IC (TGI) (IGROV) was 7.08 µM. It also gave a GI50 (SK-BR-3) of 4.95 µM, a CC50 (SK-BR-3) of 12.8 µM and an IC (TGI) (SK-BR-3) of 12.8 µM. For the same molecule, the GI50 (SKOV-3) was 6.26 µM, the CC50 (SKOV-3) was 12.8 µM and the IC (TGI) (SKOV-3) was 12.8 µM. For the same molecule, the GI50 (IGROV-ET) was 11.7 µM, the CC50 (IGROV-ET) was 12.8 µM and the IC (TGI) (IGROV-ET) was 12.8 µM.
